In data set [1] the test system is HL-60 cells. Briefly: MTT assay, cell viability of HL-60 cells. The data set is classed as cell-based. Conditions: Homo sapiens, 48 h, mean ± s.d., n = 3, read-out: IC50 values of compounds for leukemia cells. For orientation: Tetrazolium assays rely on reduction of a dye to a coloured formazan, in cell work by metabolically active cells.
Data set [2] concerns KG-1 cells. As to the kind of experiment: MTT assay, cell viability of KG-1 cells. The data set is classed as cell-based. The following applies: Homo sapiens, 48 h, mean ± s.d., n = 3, read-out: IC50 values of compounds for leukemia cells.
For data set [3], the system named is THP-1 cells. Briefly: MTT assay, cell viability of THP-1 cells. Conditions: Homo sapiens, 48 h, mean ± s.d., n = 3, read-out: IC50 values of compounds for leukemia cells. Format: cell-based.
The test system of data set [4] is U937 cells. Briefly: MTT assay, cell viability of U937 cells. Format: cell-based. The following applies: Homo sapiens, U-937, 48 h, mean ± s.d., n = 3, read-out: IC50 values of compounds for leukemia cells.
Data set [5] concerns Jurkat cells. As to the kind of experiment: MTT assay, cell viability of Jurkat cells. The data set is classed as cell-based. The following applies: Homo sapiens, 48 h, mean ± s.d., n = 3, read-out: IC50 values of compounds for leukemia cells.
For data set [6], the system named is K562 cells. Briefly: MTT assay, cell viability of K562 cells. Format: cell-based. Conditions: Homo sapiens, 48 h, mean ± s.d., n = 3, read-out: IC50 values of compounds for leukemia cells.
For data set [7], the system named is human leukemia cells (HL-60, KG-1, THP-1, U937, Jurkat and K562 cells). As to the kind of experiment: MTT assay, all tested leukemia cells (summary statements). The following applies: all tested leukemia cells, MTT, compared with Az, GD and imatinib. Here is the method:
To assess anti-leukemia activity of Az, several human leukemia cells (HL-60 cells, acute myeloid leukemia; Jurkat cells, acute T-lymphocytic leukemia; KG-1 cells, acute myeloid leukemia; U937 cells, acute myeloid leukemia; THP-1 cells, acute monocytic leukemia; K562 cells, chronic myeloid leukemia) were incubated with Az for 48 h. […] An MTT assay was then performed to measure cell viabilities.
Cells were exposed to each compound (a HCl salt form) at various concentrations for indicated time periods (24 or 48 h) in culture media. MTT assays were conducted according to known procedures. The absorbance at 570 nm was determined by employing a microplate reader (TECAN, Infinite® 200 PRO).

Data set [8] deals with HL-60 and K562 cells. Briefly: Flow cytometry, fluorescein-annexin V and PI staining. The data set is classed as cell-based, human. Conditions: 24 h; 10 µM Az, 10 µM GD or 4 µM Az-O3-GD. Here is the method: (§1) To determine whether Az promotes leukemia cell death via apoptosis, acute leukemia HL-60 and chronic leukemia K562 cells were independently incubated with Az. The treated cells were then exposed to a mixed solution of fluorescein-annexin V and propidium iodide (PI) and flow cytometry analysis was conducted. […] The size of the treated cells was also assessed by using flow cytometry. […] We also investigated if the mitochondrial membrane potential in cells treated with Az is disrupted. To test this possibility, HL-60 and K562 cells were exposed to Az and subsequently stained with a membrane potential sensitive JC-1 probe. […] This serves as another evidence for apoptosis induced by Az.
HL-60 and K562 cells were incubated with each compound for 24 h in culture media. Cells were re-suspended with 500 μL binding buffer (10 mM HEPES, […] and 2.5 mM CaCl2, pH 7.5) and then incubated with the FITC-annexin V apoptosis detection kit with PI according to the protocol provided by the manufacturer. Flow cytometry was carried out by using a BD FACSVerse™ instrument (BD Biosciences) and the data were analyzed by using a FlowJo™ software (BD Biosciences).
On the technique in general: Flow cytometry measures light scatter and fluorescence of single cells or particles in a stream.

For data set [9], the system named is HL-60 and K562 cells. Briefly: Flow cytometry, JC-1 mitochondrial membrane potential. The following applies: 24 h; 10 µM Az or 4 µM Az-O3-GD. The data set is classed as cell-based, human. Here is the method:
as §1
JC-1 staining: HL-60 and K562 cells were treated with each compound and then with 2.5 μg/mL JC-1 (Anaspec) in PBS for 15 min. Flow cytometry was conducted with a BD FACSVerse™ instrument (the red fluorescence signal: λex = 550 nm, λem = 600 nm; the green fluorescence signal: λex = 485 nm, λem = 535 nm) and the data were analyzed using a FlowJo™ software.

Data set [10] has as its system caspase activity of HL-60 and K562 cells. As to the kind of experiment: Caspase activity assay with Ac-DEVD-pNA in cell lysates. The following applies: lysates of cells treated 24 h. The data set is classed as cell-based, human. The protocol: Because Az inhibits the association of Hsp70 with Apaf-1, caspase associated proteolytic activities should increase in cells treated with Az. To determine whether this event occurs, caspase activities of HL-60 and K562 cells treated with Az were measured by using the colorimetric substrate, Ac-DEVD-pNA (pNA, p-nitroaniline). […] We also examined whether leukemia cells are protected from the effect of Az by ZVAD-FMK (benzyloxycarbonyl-Val-Ala-Asp(OMe) fluoromethyl ketone, a cell-permeable inhibitor of pan-caspases). HL-60 and K562 cells were pre-incubated with ZVAD-FMK for 3 h and subsequently exposed to Az.
HL-60 and K562 cells treated with each compound for 24 h were lysed in a buffer containing 50 mM HEPES (pH 7.4), 5 mM CHAPS and 5 mM DTT. Assay buffer containing 20 mM HEPES (pH 7.4), 0.01% CHAPS, 5 mM DTT and 2 mM EDTA was added to cell lysates. Caspase activity was measured in the absence or presence of acetyl-DEVD-pNA (200 μM) (Sigma-Aldrich) by using a microplate reader (monitored at 405 nm).

For data set [11], the system named is AIF translocation in HL-60 and K562 cells. As to the kind of experiment: AIF translocation to the nucleus (western blot, immunocytochemistry). Format: cell-based, human. Conditions: 24 h; 2 μM for Az-O3-GD. From the text:
Apoptosis-inducing factor (AIF) is known to be translocated from the cytosol to the nucleus during caspase-independent apoptosis (Supplementary Fig. S8b)[39]. In addition, it is also known that Hsp70 interacts with AIF directly and this interacting event results in blocking translocation of AIF to the nucleus and, in turn, prevents caspase-independent apoptosis. Because of these phenomena, we tested if Az has an influence on AIF-mediated caspase-independent apoptosis. To probe this issue, HL-60 and K562 cells were exposed to Az and the levels of AIF in the cytosolic and nuclear fractions were then determined. AIF translocation to the nucleus was not observed in Az-treated cells, based on western blot analysis (Fig. 4d). Additional evidence to support this conclusion was obtained from immunocytochemical analysis of leukemia cells treated with Az (Fig. 4d).
(§2) Western blot analysis. […] peroxidase-conjugated goat anti-rabbit IgG (1:2000, Santa Cruz Bio Technology) and goat anti-mouse IgG (1:2000, Santa Cruz Bio Technology) were used as the secondary antibodies. The blots were developed by using a West-ZOL® plus Western Blot Detection System (Intron Biotechnology Inc., South Korea). Western blot signals were analyzed by using a G:BOX Chemi Fluorescent & Chemiluminescent Imaging System.
Immunocytochemistry. […] Cell images were analyzed using the ZEN 2011 software.

The test system of data set [12] is Hsp70 level in HL-60 and K562 cells. As to the kind of experiment: Western blot of Hsp70 and Hsp90 levels. Format: cell-based, human. Conditions: cells treated 24 h. Here is the method:
Because Az-O3-GD promotes caspase activation in leukemia cells, it was anticipated that procaspase-9, procaspase-3 and PARP would be cleaved in treated cells. To test this possibility, HL-60 and K562 cells were exposed to Az-O3-GD, along with Az and GD as controls and western blot analysis was then carried out. […] Although Az-O3-GD upregulates Hsp70, the presence of the Hsp70 inhibitor in this hybrid causes its cytotoxicity against leukemia cells to be higher than that of GD. Finally, we examined the effect of Az-O3-GD on AIF-mediated caspase-independent apoptosis. To this end, HL-60 and K562 cells were incubated with Az-O3-GD for 24 h.
as §2

Each structure is given as a SMILES string.

Broadly, the IC50 is the midpoint of a concentration-inhibition curve.

For `COc1ccc(-c2nc(-c3cc(C(F)(F)F)cc(C(F)(F)F)c3)n(Cc3ccc(C(=O)NCCCOCCOCCOCCCNC4=C5CC(C)CC(OC)C(O)C(C)C=C(C)C(OC(N)=O)C(OC)C=CC=C(C)C(=O)NC(=CC4=O)C5=O)cc3)c2-c2ccc(OC)cc2)cc1` (stereo not drawn) [Az-O3-GD], the IC50 in data set [1] turned out to be 740 ± 270 nM; in [2], 1310 ± 300 nM; in data set [3] it was 620 ± 270 nM; in data set [4] it was 1120 ± 440 nM; in [5] it was 570 ± 180 nM; in data set [6], 720 ± 260 nM. The “cytotoxicity relative to the individual inhibitors” value in data set [7] is given as “greatly enhanced cytotoxicities”. Also, the “apoptosis, annexin V binding and PI uptake” value in data set [8] was “induces apoptosis”. The “mitochondrial membrane potential, JC-1 red fluorescence” value in data set [9] was “significant decrease in the intensity of red fluorescence from JC-1”. The “caspase activity of treated cells” value in data set [10] was “increase”. In data set [11], the “AIF translocation to the nucleus” value was “does not elicit the translocation of AIF to the nucleus”. Also, the “translational level of Hsp70” value in [12] is “upregulation of Hsp70”.
